Results from patent US7982042B2, “Thiozanthene derivatives as delta-opioid modulators” (priority 2003, dated 2011).
Where two headings read alike, the source gives them in different places.

Key:
[1] = target: T1, Rat brain delta opioid receptor (Rattus norvegicus, UniProt P33533); test: Rat brain delta opioid receptor binding
T1 construct: from tissue; host or cells: rat brain

[2] = target: T2, Rat brain mu opioid receptor (Rattus norvegicus, UniProt P33535); test: Rat brain mu opioid receptor binding assay ([3H]DAMGO)
T2 construct: from tissue; host or cells: forebrain of male Sprague Dawley rats
T2 sequence (P33535 whole entry): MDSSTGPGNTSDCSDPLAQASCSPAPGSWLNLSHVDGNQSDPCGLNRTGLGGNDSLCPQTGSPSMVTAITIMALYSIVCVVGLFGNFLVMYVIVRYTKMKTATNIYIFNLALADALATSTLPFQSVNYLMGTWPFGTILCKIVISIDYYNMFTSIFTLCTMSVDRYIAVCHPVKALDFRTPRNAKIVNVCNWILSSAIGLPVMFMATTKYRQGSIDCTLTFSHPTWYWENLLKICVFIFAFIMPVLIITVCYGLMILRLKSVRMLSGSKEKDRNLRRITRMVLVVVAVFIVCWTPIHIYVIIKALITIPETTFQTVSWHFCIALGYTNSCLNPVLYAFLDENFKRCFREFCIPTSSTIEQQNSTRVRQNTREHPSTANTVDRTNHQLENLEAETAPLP
Protocol: • Procedure: Male, Sprague Dawley (150-250 g, VAF, Charles River, Kingston, N.Y.) are killed by CO2, and their brains removed and placed immediately in ice cold Tris HCl buffer (50 mM, pH 7.4). The forebrains are separated from the remainder of the brain by a coronal transection, beginning dorsally at the colliculi and passing ventrally through the midbrain-pontine junction. After dissection, the forebrains are homogenized in Tris buffer in a Teflon®-glass homogenizer. The homogenate is diluted to a concentration of 1 g of forebrain tissue per 80 mL Tris and centrifuged at 39,000×g for 10 min. The pellet is resuspended in the same volume of Tris buffer containing 5 mM MgCl2 with several brief pulses from a Polytron homogenizer. This particulate preparation is used for the mu-opioid binding assays. […] Kd and Ki values are calculated using GraphPad PRISM data analysis program.

[3] = target: T3, human delta opioid receptor (Homo sapiens, UniProt P41143); test: [35S]GTPγS binding assay in CHO-hδ cell membranes; assay type: biochemical
T3 construct: purchased Receptor Biology, Inc. (Baltimore, Md.); host or cells: CHO cells expressing the human delta receptor (membranes)
T3 sequence (P41143 whole entry): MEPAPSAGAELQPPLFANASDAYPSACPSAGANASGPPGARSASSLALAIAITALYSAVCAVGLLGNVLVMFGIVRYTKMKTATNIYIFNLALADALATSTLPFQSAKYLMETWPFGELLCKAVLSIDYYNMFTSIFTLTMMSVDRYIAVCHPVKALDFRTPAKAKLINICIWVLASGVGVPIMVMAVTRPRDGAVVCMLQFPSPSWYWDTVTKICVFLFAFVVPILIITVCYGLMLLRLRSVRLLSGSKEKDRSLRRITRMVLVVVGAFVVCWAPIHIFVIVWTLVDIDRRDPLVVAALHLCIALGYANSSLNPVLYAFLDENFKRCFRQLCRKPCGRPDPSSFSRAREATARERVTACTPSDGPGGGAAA
Protocol: CHO-hδ cell membranes are purchased from Receptor Biology, Inc. (Baltimore, Md.). 10 mg/ml of membrane protein is suspended in 10 mM TRIS-HC pH 7.2, 2 mM EDTA, 10% sucrose.
Membranes are maintained at 4-8° C. 1 ml of membranes is added into 15 ml cold binding assay buffer. The assay buffer contained 50 mM HEPES, pH 7.6, 5 mM MgCl2, 100 mM NaCl, 1 mM DTT and 1 mM EDTA. The membrane suspension is homogenized with a Polytron 2 times and centrifuged at 3000 rpm for 10 min. The supernatant is then centrifuged at 18,000 rpm for 20 min. The pellet is saved in a tube and 10 ml assay buffer is added into the tube. The pellet and buffer are mixed with a Polytron.
The pellet membranes (20 μg/ml) are preincubated with SPA (10 mg/ml) at 25° C. for 45 min in the assay buffer. The SPA (5 mg/ml) coupled with membranes (10 μg/ml) is then incubated with 0.5 nM [^35S]GTPgS in the same HEPES buffer containing 50 μM GDP in total volume of 200 μl. Increasing concentrations of receptor agonists are used to stimulate [^35S]GTPgS binding. The basal binding is tested in the absence of agonists and non-specific binding is tested in the presence of 10 μM unlabeled GTP S. The data are analyzed on a Top counter.

[4] = hDOR GTPγS EC50, human delta opioid receptor GTPγS functional assay

T1 sequence (P33533 whole entry): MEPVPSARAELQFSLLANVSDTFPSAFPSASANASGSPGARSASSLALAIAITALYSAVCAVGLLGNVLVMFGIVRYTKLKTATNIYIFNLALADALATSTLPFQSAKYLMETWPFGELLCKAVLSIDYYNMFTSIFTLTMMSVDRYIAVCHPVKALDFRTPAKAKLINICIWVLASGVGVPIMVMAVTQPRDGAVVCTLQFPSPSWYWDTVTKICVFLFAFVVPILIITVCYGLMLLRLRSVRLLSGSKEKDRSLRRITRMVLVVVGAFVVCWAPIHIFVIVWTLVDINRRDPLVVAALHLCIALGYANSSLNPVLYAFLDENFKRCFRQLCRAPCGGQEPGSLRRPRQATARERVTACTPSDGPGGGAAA

SMILES	Ki ([1]; read-out: rDOR Ki) [nM]	Ki ([2]; read-out: rMOR Ki) [nM]	Ki ([1]; rDOR Ki) [nM]	Ki ([2]; rMOR Ki) [nM]	other results
CCNC(=O)c1ccc2c(c1)OCc1ccccc1C2=C1CCN(C)CC1 [Compound 9, 11-(1-Methyl-piperidin-4-ylidene)-6,11-dihydro-dibenzo[b,e]oxepine-3-carboxylic acid ethylamide]	> 100000	> 100000	–	–	–
CCNC(=O)c1ccc2c(c1)OCc1ccccc1C2=C1CCN(Cc2cccs2)CC1 [Compound 13]	143	1900	–	–	–
C=CCN1CCC(=C2c3ccccc3COc3cc(C(=O)NCC)ccc32)CC1 [Compound 19, 11-(1-Allyl-piperidin-4-ylidene)-6,11-dihydro-dibenzo[b,e]oxepine-3-carboxylic acid ethylamide]	368	2870	–	–	–
CCN(CC)C(=O)c1ccc2c(c1)Oc1ccc(NC(C)=O)cc1C2=C1CCN(C)CC1 [Compound 41, 7-Acetylamino-9-(1-methyl-piperidin-4-ylidene)-9H-xanthene-3-carboxylic acid diethylamide]	5200	> 10000	–	–	–
CCN(CC)C(=O)c1ccc2c(c1)Oc1ccc(Br)cc1C2=C1CC2CCC(C1)N2 [Compound 83]	–	–	139	17700	–
CCNC(=O)c1ccc2c(c1)Oc1ccccc1C2=C1CC2CCC(C1)N2 (single isomer, unassigned) [Compound 56]	161	712	–	–	–
CCN(CC)C(=O)c1ccc2c(c1)OCc1ccccc1C2=C1CCN(C)CC1 [Compound 1, 11-(1-Methyl-piperidin-4-ylidene)-6,11-dihydro-dibenzo[b,e]oxepine-3-carboxylic acid diethylamide]	–	6410	25.5	–	EC50 ([3]; human delta opioid receptor GTPγS functional assay, read-out: hDOR GTPγS EC50): > 10000 nM; inhibition at 10 µM ([3]; read-out: inhibition of GTP binding induced with 1 uM DPDPE): 61%
NC(=O)c1ccc2c(c1)Oc1ccccc1C2=C1CC2CCC(C1)N2 [Compound 65]	–	–	197	858	–
C=C(C)CN1CCC(=C2c3ccccc3COc3cc(C(=O)NCC)ccc32)CC1 [Compound 14]	432	4820	–	–	–
CCCN(CCC)C(=O)c1ccc2c(c1)Oc1ccccc1C2=C1CC2CCC(C1)N2 [Compound 60]	–	–	4.62	836	–
CCNC(=O)c1ccc2c(c1)OCc1ccccc1C2=C1CCN(C(=O)OCC(Cl)(Cl)Cl)CC1 [Compound 10, 4-(3-Ethylcarbamoyl-6H-dibenzo[b,e]oxepin-11-ylidene) -piperidine-1-carboxylic acid 2,2,2-trichloro-ethyl ester]	> 100000	92500	–	–	–
CCNC(=O)c1ccc2c(c1)OCc1ccccc1C2=C1CCNCC1 [Compound 11, 11-Piperidin-4-ylidene-6,11-dihydro-dibenzo[b,e]oxepine-3-carboxylic acid ethylamide]	317	5660	–	–	–
CCN(CC)C(=O)c1ccc2c(c1)Oc1c(F)cccc1C2=C1CC2CCC(C1)N2 [Compound 102]	–	–	68	2860	–
CCN(CC)C(=O)c1ccc2c(c1)Sc1ccccc1C2=C1CC2CCC(C1)N2CCO [Compound 51, 9-[8-(2Hydroxy-ethyl)-8-aza-bicyclo[3.2.1]oct-3-ylidene]-9H-thioxanthene-3-carboxylic acid diethylamide]	–	–	4.85	> 100	EC50 [3, 4]: 62.8 nM
CCN(CC)C(=O)c1ccc2c(c1)Oc1ccc(C)cc1C2=C1CC2CCC(C1)N2 [Compound 67]	–	–	54.4	10900	–
CCN(CC)C(=O)c1ccc2c(c1)Sc1ccccc1C2=C1CC2CCC(C1)N2 [Compound 48, 9-(8-Aza-bicyclo[3.2.1]oct-3-ylidene)-9H-thioxanthene-3-carboxylic acid diethylamide]	–	–	0.9	> 100	EC50 [3, 4]: 18.8 nM
CN(C)C(=O)c1ccc2c(c1)Oc1ccccc1C2=C1CC2CCC(C1)N2 [Compound 57]	–	–	397	5260	–
CCN(CC)C(=O)c1ccc2c(c1)OCc1ccccc1C2=C1CCNCC1 [Compound 2]	–	–	0.91	2630	EC50 [3, 4]: 58.6 nM
CCN(CC)C(=O)c1ccc2c(c1)Oc1cc(OC)ccc1C2=C1CC2CCC(C1)N2 [Compound 70, 9-(8-Aza-bicyclo[3.2.1]oct-3-ylidene)-6-methoxy-9H-xanthene-3-carboxylic acid diethylamide]	–	–	2.31	5740	–
CCN(CC)C(=O)c1ccc2c(c1)Oc1ccc(-c3ccoc3)cc1C2=C1CC2CCC(C1)N2 [Compound 86]	–	–	1760	12500	–

SMILES	Ki ([1]; read-out: rDOR Ki) [nM]	Ki ([2]; read-out: rMOR Ki) [nM]	Ki ([1]; rDOR Ki) [nM]	Ki ([2]; rMOR Ki) [nM]	other results
C#CCN1CCC(=C2c3ccccc3Oc3cc(C(=O)N(CC)CC)ccc32)CC1 [Compound 33, 9-(1-Prop-2-ynyl-piperidin-4-ylidene)-9H-xanthene-3-carboxylic acid diethylamide]	–	–	16.5	5420	–
CCNC(=O)c1ccc2c(c1)OCc1ccccc1C2=C1CCN(CCc2ccccc2)CC1 [Compound 20]	23300	248	–	–	–
CCN(CC)C(=O)c1ccc2c(c1)Oc1ccccc1C2=C1CC2CCC(C1)N2CCOC [Compound 39, 9-[8-(2-Methoxy-ethyl)-8-aza-bicyclo[3.2.1]oct-3-ylidene]-9H-xanthene-3-carboxylic acid diethylamide]	–	–	8.43	1680	EC50 [3, 4]: 94.9 nM
CCN(CC)C(=O)c1ccc2c(c1)Oc1ccc(-c3ccsc3)cc1C2=C1CC2CCC(C1)N2 [Compound 90]	–	–	836	12400	–
CCNC(=O)c1ccc2c(c1)OCc1ccccc1C2=C1CCN(Cc2ccc(O)c(OC)c2)CC1 [Compound 18]	2000	2420	–	–	–
CCN(CC)C(=O)c1ccc2c(c1)Oc1ccccc1C2C1CCN(C)CC1 (stereo not shown) [Compound 43, 9-(1-Methylpiperidin-4-yl)-9H-xanthene-3-carboxylic acid diethylamide]	–	–	–	> 10000	–
CCN(CC)C(=O)c1ccc2c(c1)Oc1c(cccc1-c1cnc3ccccc3c1)C2=C1CC2CCC(C1)N2 [Compound 98]	–	7360	24.5	–	–
CNC(=O)c1ccc2c(c1)Oc1ccccc1C2=C1CC2CCC(C1)N2 [Compound 64]	–	–	118	711	–
CC(C)NC(=O)c1ccc2c(c1)Oc1ccccc1C2=C1CC2CCC(C1)N2 [Compound 58]	–	–	1160	2980	–
CCN(CC)C(=O)c1ccc2c(c1)Oc1ccc(-c3ccc[nH]3)cc1C2=C1CC2CCC(C1)N2 [Compound 93]	–	–	> 10000	> 10000	–
CCNC(=O)c1ccc2c(c1)Oc1ccccc1C2=C1CC2CCC(C1)N2CCc1ccccc1 [Compound 27]	209	189	–	–	–
CCNC(=O)c1ccc2c(c1)Oc1ccccc1C2=C1CCNCC1 [Compound 32, 9-Piperidin-4-ylidene-9H-xanthene-3-carboxylic acid ethylamide]	–	1490	73	–	–
CCN(CC)C(=O)c1ccc2c(c1)Oc1ccc(NC(C)=O)cc1C2=C1CCNCC1 [Compound 34, 7-Acetylamino-9-piperidin-4-ylidene-9H-xanthene-3-carboxylic acid diethylamide]	> 10000	> 10000	–	–	–
CCNC(=O)c1ccc2c(c1)Sc1ccccc1C2=C1CC2CCC(C1)N2 [Compound 80]	–	–	260	473	–
CCN(CC)C(=O)c1ccc2c(c1)Sc1ccccc1C2=C1CC2CCC(C1)N2Cc1c[nH]cn1 [Compound 74]	–	–	3.79	848	–
CCCNC(=O)c1ccc2c(c1)Oc1ccccc1C2=C1CC2CCC(C1)N2 [Compound 63]	–	–	108	1730	–
CCN(CC)C(=O)c1ccc2c(c1)Oc1ccc(-c3ccncc3)cc1C2=C1CC2CCC(C1)N2 [Compound 85]	–	–	3000	10700	–
CCNC(=O)c1ccc2c(c1)Sc1ccccc1C2=C1CC2CCC(C1)N2 [Compound 81]	–	–	77.6	838	–
CCN(CC)C(=O)c1ccc2c(c1)Oc1c(cccc1-c1ccccc1)C2=C1CC2CCC(C1)N2 [Compound 95, 9-(8-Aza-bicyclo[3.2.1]oct-3-ylidene)-5-phenyl-9H-xanthene-3-carboxylic acid diethylamide]	–	–	25.4	6520	–
CC(C)CN(C)C(=O)c1ccc2c(c1)Oc1ccccc1C2=C1CC2CCC(C1)N2 [Compound 59]	–	–	10.6	3340	–
